# Species on record: Oryctolagus cuniculus
# Assay: Ability to stimulate contraction of the rabbit iris sphincter smooth muscle using smooth muscle contraction assay
# Type: functional
# Conditions: Muscle tissue
row,SMILES,EC50 [nM]
1,CSCC[C@H](NC(=O)[C@H](CC(C)C)NC(=O)CNC(=O)[C@H](Cc1ccccc1)NC(=O)[C@@H](NC(=O)[C@H](CCC(N)=O)NC(=O)[C@H](CCC(N)=O)NC(=O)[C@@H]1CCCN1C(=O)[C@H](CCCCN)NC(=O)[C@@H]1CCCN1C(=O)[C@@H](N)CCCN=C(N)N)[C@@H](C)c1ccccc1)C(N)=O,0.59
2,CSCC[C@H](NC(=O)[C@H](CC(C)C)NC(=O)CNC(=O)[C@@H](NC(=O)[C@H](Cc1ccccc1)NC(=O)[C@H](CCC(N)=O)NC(=O)[C@H](CCC(N)=O)NC(=O)[C@@H]1CCCN1C(=O)[C@H](CCCCN)NC(=O)[C@@H]1CCCN1C(=O)[C@@H](N)CCCN=C(N)N)[C@@H](C)c1ccccc1)C(N)=O,0.13
3,CSCC[C@H](NC(=O)[C@H](CC(C)C)NC(=O)CNC(=O)[C@H](Cc1ccccc1)NC(=O)[C@@H](NC(=O)[C@H](CCC(N)=O)NC(=O)[C@H](CCC(N)=O)NC(=O)[C@@H]1CCCN1C(=O)[C@H](CCCCN)NC(=O)[C@@H]1CCCN1C(=O)[C@@H](N)CCCN=C(N)N)[C@H](C)c1ccccc1)C(N)=O,0.54

# Now from value to compound:
row,EC50 [nM],SMILES
1,0.18,CSCC[C@H](NC(=O)[C@H](CC(C)C)NC(=O)CNC(=O)[C@@H](NC(=O)[C@@H](NC(=O)[C@H](CCC(N)=O)NC(=O)[C@H](CCC(N)=O)NC(=O)[C@@H]1CCCN1C(=O)[C@H](CCCCN)NC(=O)[C@@H]1CCCN1C(=O)[C@@H](N)CCCN=C(N)N)[C@@H](C)c1ccccc1)[C@@H](C)c1ccccc1)C(N)=O
2,0.28,CSCC[C@H](NC(=O)[C@H](CC(C)C)NC(=O)CNC(=O)[C@@H](NC(=O)[C@@H](NC(=O)[C@H](CCC(N)=O)NC(=O)[C@H](CCC(N)=O)NC(=O)[C@@H]1CCCN1C(=O)[C@H](CCCCN)NC(=O)[C@@H]1CCCN1C(=O)[C@@H](N)CCCN=C(N)N)[C@H](C)c1ccccc1)[C@@H](C)c1ccccc1)C(N)=O
3,10,CSCC[C@H](NC(=O)[C@H](CC(C)C)NC(=O)CNC(=O)[C@@H](NC(=O)[C@@H](NC(=O)[C@H](CCC(N)=O)NC(=O)[C@H](CCC(N)=O)NC(=O)[C@@H]1CCCN1C(=O)[C@H](CCCCN)NC(=O)[C@@H]1CCCN1C(=O)[C@@H](N)CCCN=C(N)N)[C@H](C)c1ccccc1)[C@H](C)c1ccccc1)C(N)=O
4,0.58,CSCC[C@H](NC(=O)[C@H](CC(C)C)NC(=O)CNC(=O)[C@@H](NC(=O)[C@@H](NC(=O)[C@H](CCC(N)=O)NC(=O)[C@H](CCC(N)=O)NC(=O)[C@@H]1CCCN1C(=O)[C@H](CCCCN)NC(=O)[C@@H]1CCCN1C(=O)[C@@H](N)CCCN=C(N)N)[C@@H](C)c1ccccc1)[C@H](C)c1ccccc1)C(N)=O
5,5.76,CSCC[C@H](NC(=O)[C@H](CC(C)C)NC(=O)CNC(=O)[C@@H](NC(=O)[C@H](Cc1ccccc1)NC(=O)[C@H](CCC(N)=O)NC(=O)[C@H](CCC(N)=O)NC(=O)[C@@H]1CCCN1C(=O)[C@H](CCCCN)NC(=O)[C@@H]1CCCN1C(=O)[C@@H](N)CCCN=C(N)N)[C@H](C)c1ccccc1)C(N)=O

# Reference: ChEMBL document CHEMBL1128422 (J Med Chem, 1995)
